Measurements as given in US20250325717A1, “ANTI-NUCLEOPHOSMIN 1 ANTIBODY AND ANTIBODY CONJUGATE COMBINATION THERAPIES” (The Children's Medical Center Corporation, priority 2022, published 2025).

Assays:
[1] = system: NPM1 on the surface of OCI-AML3 cells; test: Effect of chemotherapeutics on anti-NPM1 antibody binding to OCI-AML3 cell surface; type: cell-based, human
OCI-AML3 cells = test: Low dose chemotherapeutics: induction of cell surface NPM1 on OCI-AML3 cells; type: cell-based, human; conditions: daunorubicin 10 nanomolar (nm), venetoclax 40 nm; for NPM1 on the cell surface: 48 hrs
Experimental: To determine whether low doses of chemotherapeutic agents, daunorubicin and venetoclax, induce cell surface NPM1, OCI-AML3 cells were exposed to either control or a low dose of a chemotherapeutic treatment. OCI-AML3 cells are resistant to BLC2i. Daunorubicin was administered at 10 nanomolar (nm) and venetoclax was administered at 40 nm. Administration of daunorubicin increased NPM1 on the cell surface at 48 hrs and maintained higher expression for at least 9 days. Administration of venetoclax and separately 5-Aza increased NPM1 at 48 hrs and maintained higher expression for at least 7 days (FIG. 32).

[2] = system: Normal hematopoietic precursor cell line HPC7; test: Low dose chemotherapeutics: cell surface NPM1 on non-transformed HPC7 cells; type: cell-based; conditions: daunorubicin 10 nM, venetoclax 40 nM, 48 and 72 hours
Experimental: (§1) The ability of low doses of chemotherapeutic agents, daunorubicin and venetoclax, to induce cell surface NPM1 on non-transformed cells was tested. Normal hematopoietic precursor cell line HPC7 and normal myeloid progenitor line HOXB8 were exposed to either control or a low dose of a chemotherapeutic treatment. Doses of daunorubicin and venetoclax were administered at 10 nanomolar (nM) and 40 nM, respectively. The results of the antibody binding measured by flow cytometry show no change in the low dose chemotherapeutic compared to controls (FIG. 33).

[3] = system: normal myeloid progenitor line HOXB8; test: Low dose chemotherapeutics: cell surface NPM1 on non-transformed HOXB8 cells; type: cell-based; conditions: daunorubicin 10 nM, venetoclax 40 nM, 48 and 72 hours
Experimental: as §1

[4] = target: T1, surface localized NPM1 on primary murine MLL-rearranged AML cells (Mus musculus, UniProt Q61937); test: FACS binding to primary murine MLL-rearranged AML cells; type: cell-based
T1 construct: endogenous in cells; host or cells: primary murine MLL-rearranged AML cells
T1 sequence (Q61937 whole entry): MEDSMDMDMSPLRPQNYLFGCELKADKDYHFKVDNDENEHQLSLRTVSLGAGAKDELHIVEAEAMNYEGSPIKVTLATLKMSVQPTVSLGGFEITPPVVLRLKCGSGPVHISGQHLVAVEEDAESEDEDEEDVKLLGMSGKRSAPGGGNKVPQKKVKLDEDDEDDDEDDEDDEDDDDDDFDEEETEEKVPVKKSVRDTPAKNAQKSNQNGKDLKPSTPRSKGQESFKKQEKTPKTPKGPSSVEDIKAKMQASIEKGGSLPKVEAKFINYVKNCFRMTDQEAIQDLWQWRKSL
Source text: (§2) Given that a variety of murine and human leukemia cell lines express cell surface WT and/or mutant NPM1, it was subsequently assessed whether the isolated antibodies could also bind to the surface of these cells. […] These antibodies could further be used in other applications, including, for example, diagnostic agents by instead conjugating the antibodies with an imaging agent, which can in turn be used to locate and measure the relative abundance of cancer cells in a patient.

[5] = system: surface localized NPM1 on primary murine NPM1c AML cells; test: FACS binding to primary murine NPM1c AML cells; type: cell-based
Source text: as §2

[6] = system: NPM1 on human patient derived xenograft (PDX) cells; test: FACS binding to human PDX cells transplanted into a mouse model; type: cell-based
Source text: as §2

[7] = system: host murine bone marrow cells; test: FACS binding to host murine bone marrow cells of PDX mice; type: cell-based; conditions: host bone marrow of PDX mouse model
Source text: as §2

murine NPM1 = target: T2, murine NPM1 (murine, UniProt Q61937 1-292); test: FACS, primary murine MLL-r AML cells
T2 construct: also called NPM1 on primary murine MLL-rearranged (MLL-r) AML cells; NPM1 on MLL-AF9/Flt3-ITD AML cells
T2 sequence (Q61937 whole entry): as above

[8] = target: T3, human nucleophosmin 1 (NPM1) (human, UniProt P06748 1-294); test: FACS, human AML PDX cells (PDX-1, PDX-3, PDX-4)
T3 construct: In the blots it is NPM1 from lysates or membrane fractions, not on cells; also called WT NPM1; wild-type NPM1
T3 sequence (P06748 whole entry): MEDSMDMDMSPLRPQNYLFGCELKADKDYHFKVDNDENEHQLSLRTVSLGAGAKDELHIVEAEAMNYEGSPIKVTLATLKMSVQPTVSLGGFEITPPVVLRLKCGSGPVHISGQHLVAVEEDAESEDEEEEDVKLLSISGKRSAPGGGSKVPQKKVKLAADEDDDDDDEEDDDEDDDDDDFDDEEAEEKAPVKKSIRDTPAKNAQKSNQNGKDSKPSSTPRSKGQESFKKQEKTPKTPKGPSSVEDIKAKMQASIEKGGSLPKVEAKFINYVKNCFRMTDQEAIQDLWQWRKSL

Nc1ncn([C@@H]2O[C@H](CO)[C@@H](O)[C@H]2O)c(=O)n1 [5-azacytidine]
binding of anti-NPM1 antibodies to NPM1 on the surface of OCI-AML3 cells ([1]; 40 nM 5-azacytidine): The same effect was observed
binding between the isolated anti-mutant NPM1 and OCI-AML3 cells ([1]; after only 24 hours of treatment with 5-Aza): substantially enhanced
NPM1 on the cell surface (OCI-AML3 cells): increased

COc1cccc2c1C(=O)c1c(O)c3c(c(O)c1C2=O)C[C@@](O)(C(C)=O)C[C@@H]3O[C@H]1C[C@H](N)[C@H](O)[C@H](C)O1 [daunorubicin]
binding between the isolated anti-WT NPM1 and anti-mutant NPM1 antibody and NPM1 on the surface of OCI-AML3 cells ([1]; 10 nM daunorubicin or 40 nM venetoclax): enhanced binding
binding of anti-NPM1 antibody (Merck/Sigma anti-B23 #B0556) to cells ([1]; 8 days post-treatment, 10 nM daunorubicin or 40 nM venetoclax): substantially enhanced
binding of anti-NPM1 antibody (Merck/Sigma anti-B23 #B0556) to cells ([1]; after 48 hours of treatment, 10 nM daunorubicin or 40 nM venetoclax): enhanced
NPM1 on the cell surface (OCI-AML3 cells): increased
time for which higher NPM1 expression was maintained (OCI-AML3 cells): at least 9 days
antibody binding (cell surface NPM1) compared to controls [2]: no change
antibody binding (cell surface NPM1) compared to controls [3]: no change

B1: Ab1 (antibody)
heavy: EVQLQQSVAELVRPGASVKLSCTASGFNIKNIFVHWVKQRPEQGLEWIGKIDPANDNTKFAPNFQGKAAISADTSSNTAYLQLSSLTSEDTAIYYCASDSSGYDAVDYWGQGTSVTVSSAKTTAPSVYPLAPVCGDTTGSSVTLGCLVKGYFPEPVTLTWNSGSLSSGVHTFPAVLQSDLYTLSSSVTVTSSTWPSQSITCNVAHPASSTKVDKKIEPRGPTIKPCPPCKCPAPNLLGGPSVFIFPPKIKDVLMISLSPIVTCVVVDVSEDDPDVQISWFVNNVEVHTAQTQTHREDYNSTLRVVSALPIQHQDWMSGKEFKCKVNNKDLPAPIERTISKPKGSVRAPQVYVLPPPEEEMTKKQVTLTCMVTDFMPEDIYVEWTNNGKTELNYKNTEPVLDSDGSYFMYSKLRVEKKNWVERNSYSCSVVHEGLHNHHTTKSFSRTPGK
light: DIQMTQSPASLSASVGETVTITCRASESVYTYLAWYQQKQGKSPQLLVYNAKTLTEGVPSRFSGSGSGTQFSLRINSLQPEDFGSYYCQHHYGTPYTFGSGTKLEIKRADAAPTVSIFPPSSEQLTSGGASVVCFLNNFYPKDINVKWKIDGSERQNGVLNSWTDQDSKDSTYSMSSTLTLTKDEYERHNSYTCEATHKTSTSPIVKSFNRNEC
binding to surface localized NPM1 [4]: capable of binding
binding to surface localized NPM1 [5]: capable of binding
binding to NPM1 on PDX cells [6]: bound
binding to host murine bone marrow cells [7]: without binding

B2: Ab1 anti-NPM1 antibody (antibody, mouse IgG2a, kappa, V domains shown)
VH: EVQLQQSVAELVRPGASVKLSCTASGFNIKNIFVHWVKQRPEQGLEWIGKIDPANDNTKFAPNFQGKAAISADTSSNTAYLQLSSLTSEDTAIYYCASDSSGYDAVDYWGQGTSVTVSS
VL: DIQMTQSPASLSASVGETVTITCRASESVYTYLAWYQQKQGKSPQLLVYNAKTLTEGVPSRFSGSGSGTQFSLRINSLQPEDFGSYYCQHHYGTPYTFGSGTKLEIKR
notes: also called isolated anti-WT NPM1 antibody
binding result (murine NPM1): binds
binding result [8]: binds
